Tested on: Wistar rats
Assay: formalin model of inflammatory pain
Format: in vivo
Conditions: 100 mg/paw subcutaneous, 5 minutes before formalin

## O=C(c1ccccc1)c1ccc2n1CCC2C(=O)O (stereo not shown) [Ketorolac, ketorolac]
  reduction of inflammatory pain (nociceptive response): ~50%

— US20180110803A1, “Neutral Electrolyzed Water and Uses Thereof” (priority 2016, published 2018)
